In ChEMBL document CHEMBL5260828, “Amphiphilic glycoconjugates as potential anti-cancer chemotherapeutics” (Eur J Med Chem, 2018):
Values after ≈ are worked out from the molar mass of the structure shown. Each block holds one compound with its values, some of them ahead of it.

What was measured:
[1] = test system: CCRF S-180; assay: Antitumor activity against mouse CCRF S-180 cells implanted in Kunming mouse assessed as inhibition of tumor growth at 1 mg/kg,ip administered for 9 consecutive days; assay type: functional
[2] = test system: CCRF S-180; assay: Antitumor activity against mouse CCRF S-180 cells implanted in Kunming mouse assessed as inhibition of tumor growth at 4 mg/kg,ip administered for 9 consecutive days; assay type: functional
[3] = test system: CCRF S-180; assay: Antitumor activity against mouse CCRF S-180 cells implanted in Kunming mouse assessed as inhibition of tumor growth at 2 mg/kg,ip administered for 9 consecutive days; assay type: functional
[4] = test system: HeLa; assay: Cytotoxicity against human HeLa cells; assay type: functional, cell-based
[5] = test system: MKN-45; assay: Cytotoxicity against human MKN-45 cells; assay type: functional, cell-based
[6] = test system: ACHN; assay: Cytotoxicity against human ACHN cells; assay type: functional, cell-based
[7] = test system: ACHN; assay: Cytotoxicity against human ACHN cells assessed as cell viability; assay type: functional
[8] = test system: ACHN; assay: Cytotoxicity against human ACHN cells assessed as cell viability at 5 mM in presence of paclitaxel; assay type: functional; conditions: read-out: Activity
[9] = Cytotoxicity against human HEK293F cells; assay type: toxicity, cell-based
[10] = test system: Lung NSCLC-N6 cell-line; assay: Cytotoxicity against human Lung NSCLC-N6 cell-line by MTT colorimetric assay; assay type: functional, cell-based
[11] = test system: A2780; assay: Cytotoxicity against human A2780 cells incubated for 48 hrs; assay type: functional, cell-based; conditions: A2780, 48 h
[12] = test system: P388; assay: Cytotoxicity against mouse P388 cells by MTT colorimetric assay; assay type: functional, cell-based
[13] = Cytotoxicity against rat Highly aggressively proliferating immortalized Microglia cells assessed as inhibition of cell growth incubated for 24 hrs by CTG luminescence assay; assay type: toxicity, cell-based
[14] = Cytotoxicity against mouse BV-2 cells assessed as inhibition of cell growth incubated for 24 hrs by CTG luminescence assay; assay type: toxicity, cell-based
[15] = test system: C6; assay: Antimitotic activity against rat C6 cells assessed as inhibition of cell proliferation by measuring inhibitory dose by [3H]-thymidine incorporation based […]; assay type: functional; conditions: read-out: ID50 (the source's name)
[16] = test system: HSC-2; assay: Cytotoxicity against human HSC-2 cells assessed as inhibition of cell proliferation by MTT colorimetric assay; assay type: functional, cell-based
[17] = test system: A549; assay: Cytotoxicity against human A549 cells assessed as inhibition of cell proliferation by MTT colorimetric assay; assay type: functional, cell-based
[18] = test system: Ca9-22; assay: Cytotoxicity against human Ca9-22 cells assessed as inhibition of cell proliferation by MTT colorimetric assay; assay type: functional, cell-based
[19] = test system: MDA-MB-231; assay: Cytotoxicity against human MDA-MB-231 cells assessed as inhibition of cell proliferation by MTT colorimetric assay; assay type: functional, cell-based
[20] = test system: MCF7; assay: Antiproliferative activity against human MCF7 cells assessed as inhibition of cell proliferation; assay type: functional, cell-based
[21] = test system: HCT-116; assay: Antiproliferative activity against human HCT-116 cells assessed as inhibition of cell proliferation; assay type: functional, cell-based
[22] = test system: U-937; assay: Cytotoxicity against human U-937 cells assessed as cell growth inhibition by alamar blue assay; assay type: functional, cell-based
[23] = test system: MCF7; assay: Cytotoxicity against human MCF7 cells assessed as cell growth inhibition by MTT assay; assay type: functional, cell-based
[24] = Cytotoxicity against mouse NIH/3T3 cells assessed as cell growth inhibition by alamar blue assay; assay type: toxicity, cell-based, NIH3T3
[25] = test system: MCF-10A; assay: Cytotoxicity against human MCF-10A cells assessed as cell growth inhibition by alamar blue assay; assay type: functional, cell-based
[26] = test system: MDA-MB-231; assay: Cytotoxicity against human MDA-MB-231 cells assessed as cell growth inhibition by alamar blue assay; assay type: functional, cell-based
[27] = test system: Jurkat; assay: Cytotoxicity against human Jurkat cells assessed as cell growth inhibition by alamar blue assay; assay type: functional, cell-based
[28] = test system: HeLa; assay: Cytotoxicity against human HeLa cells assessed as cell growth inhibition by alamar blue assay; assay type: functional, cell-based
[29] = test system: COLO 205; assay: Antiproliferative activity against human COLO 205 cells assessed as cell growth inhibition; assay type: functional, cell-based
[30] = test system: HL-60; assay: Antiproliferative activity against human HL-60 cells assessed as cell growth inhibition; assay type: functional, cell-based

Structure (SMILES): CCCCCCCCCCCCCO[C@@H]1O[C@H](CO[C@@H]2O[C@H](CO)[C@@H](O[C@@H]3O[C@H](CO[C@@H]4O[C@H](CO)[C@@H](O)[C@H](O)[C@H]4O)[C@@H](O)[C@H](O[C@@H]4O[C@H](CO)[C@@H](O)[C@H](O)[C@H]4O)[C@H]3O)[C@H](O)[C@H]2O)[C@@H](O)[C@H](O[C@@H]2O[C@H](CO)[C@@H](O[C@@H]3O[C@H](CO)[C@H](O)[C@H](O)[C@H]3O)[C@H](O)[C@H]2O)[C@H]1O
inhibition in vivo at 1 mg/kg [1]: 39.1%
inhibition in vivo at 4 mg/kg [2]: 37.9%
inhibition in vivo at 2 mg/kg [3]: 39.9%

Structure (SMILES): CCCCCCCC(=O)O[C@H]1[C@H](OC[C@H](O)[C@H](O)[C@@H](O)[C@@H](O)CO)O[C@H](COC(=O)CCCCC)[C@@H](OC(=O)CCCCC)[C@@H]1OC(=O)CCCCC
IC50 [4]: 16.7 µM
IC50 [5]: 14.9 µM
IC50 [6]: 17 µM
Activity [7]: 63.8%
viability at 5000 µM [8]: 40.6%
IC50 [9]: 18.1 µM

Structure (SMILES): CO[C@@H]1/C=C(\C)C[C@H](/C=C/C#C[C@H]2C[C@@H]2Cl)OC(=O)[C@@H](C)[C@]2(O)C[C@H](O[C@@H]3O[C@@H](C)[C@H](O)[C@@](C)(O)[C@H]3OC)[C@@H](C)[C@@H](O2)[C@@H]1C
IC50 [10]: 11.3 µg/mL (≈ 17.6 µM)
IC50 [11]: 20.2 µM
IC50 [12]: 15.3 µg/mL (≈ 23.8 µM)

Structure (SMILES): CCCCCCC[C@@H](CC(=O)N[C@H](CO)CC(C)C)OC(=O)C[C@H](CCCCCCC)OC(=O)C[C@H](CCCCCCC)O[C@@H]1O[C@@H](C)[C@H](O)[C@@H](O)[C@H]1O
IC50 at 24 h [13]: 22 µM
IC50 at 24 h [14]: 6.9 µM

Structure (SMILES): CO[C@@H]1O[C@H](CO)[C@@H](O[C@@H]2O[C@H](CO)[C@H](OS(=O)(=O)O)[C@H](O)[C@H]2O)[C@H](O[C@@H]2O[C@@H](C)[C@@H](O)[C@@H](O)[C@@H]2O)[C@H]1O
IC50 [15]: 79 µM

Structure (SMILES): C=CCCCC[C@@H](C)O[C@@H]1O[C@@H](C)[C@H](OC(=O)C[C@H]2C[C@@H]3O[C@]4(C)CC[C@H]5[C@H](C)CC[C@@H]([C@H]2C)[C@@]35OO4)C[C@H]1O
IC50 [16]: 15.1 µM
IC50 [17]: 15.1 µM
IC50 [18]: 15.1 µM
IC50 [19]: 15.1 µM

IC50 [20]: 0.003 µM
IC50 [21]: 0.003 µM
Structure (SMILES): CCC/C=C\C[C@@H](O[C@H](/C=C/[C@@H](C/C=C\CCCC(=O)OC)OC[C@H]1O[C@@H](OC[C@H](O)CO)[C@H](O)[C@@H](O)[C@@H]1O)[C@H](O)C/C=C\CCCCC)[C@H](O)/C=C/[C@@H](O)CCCCC(=O)OC

Structure (SMILES): C/C=C(\C)C(=O)O[C@@H]1[C@@H](O)[C@H](O[C@H]2[C@H](O[C@H](CCC)CCCCC)O[C@H](C)[C@H](OC(C)=O)[C@@H]2O)O[C@H](COC(=O)CCC(=O)CCC)[C@H]1OC(=O)/C=C/c1ccccc1
IC50 [22]: 0.0171 µM
IC50 [23]: 0.0782 µM
IC50 [24]: 0.0207 µM
IC50 [25]: 0.0118 µM
IC50 [26]: 0.0188 µM
IC50 [27]: 0.0225 µM
IC50 [28]: 0.03 µM

Structure (SMILES): CN[C@H]1[C@@H](O)C[C@H](O[C@H]2C/C=C(\C)C/C(C)=C/C=C/CC[C@H](C)CNC(=O)/C=C/C=C/[C@@H]2C)O[C@@H]1C [VICENISTATIN]
IC50 [29]: 0.19 µg/mL (≈ 0.379 µM)
IC50 [30]: 0.12 µg/mL (≈ 0.24 µM)
